Values quoted from earlier work, collected in patent publication US20240327780A1 (priority 2023, published 2024).
Counter-ions that a name gives are not always drawn.

Tested on: SARS-CoV-2 nsp14

Compound	inhibition of nsp14 in fluorescence-based screen
Fc1ccc(C(c2ccc(F)cc2)N2CCN(C/C=C/c3ccccc3)CC2)cc1 [flunarizine dihydrochloride]	selective inhibitors
Clc1ccc2nsnc2c1NC1=NCCN1 [tizanidine hydrochloride]	selective inhibitors
